# According to ChEMBL document CHEMBL4219142, “Discovery of potent DOT1L inhibitors by AlphaLISA based High Throughput Screening assay” (Bioorg Med Chem, 2018):
# Columns and labels:
# MV4-11 [1] = assay: Cell cycle arrest in human MV411 cells assessed as accumulation at G2 phase at 1.25 uM after 24 hrs by propidium iodide staining based flow cytometric analysis (reference value: 4.19 to 11.88%); assay type: functional
# MV4-11 [2] = assay: Cell cycle arrest in human MV411 cells assessed as accumulation at S phase at 0.625 uM after 24 hrs by propidium iodide staining based flow cytometric analysis (reference value: 30.25 to 47.5%); assay type: functional
# MV4-11 [3] = assay: Cell cycle arrest in human MV411 cells assessed as accumulation at S phase at 1.25 uM after 24 hrs by propidium iodide staining based flow cytometric analysis (reference value: 30.25 to 47.5%); assay type: functional
# [4] = target: T1, Histone-lysine N-methyltransferase, H3 lysine-79 specific (Homo sapiens, UniProt Q8TEK3); assay: Inhibition of recombinant human His6-SUMO tagged DOT1L (1 to 416 residues) expressed in Escherichia coli BL21(DE3) using oligonucleosome as substrate pretreated for 15 mins followed by substrate addition measured after 60 mins in presence of [3H]SAM by liquid scintillation counting method
# Target sequence in this assay (Q8TEK3 whole entry, the tested form may be a part): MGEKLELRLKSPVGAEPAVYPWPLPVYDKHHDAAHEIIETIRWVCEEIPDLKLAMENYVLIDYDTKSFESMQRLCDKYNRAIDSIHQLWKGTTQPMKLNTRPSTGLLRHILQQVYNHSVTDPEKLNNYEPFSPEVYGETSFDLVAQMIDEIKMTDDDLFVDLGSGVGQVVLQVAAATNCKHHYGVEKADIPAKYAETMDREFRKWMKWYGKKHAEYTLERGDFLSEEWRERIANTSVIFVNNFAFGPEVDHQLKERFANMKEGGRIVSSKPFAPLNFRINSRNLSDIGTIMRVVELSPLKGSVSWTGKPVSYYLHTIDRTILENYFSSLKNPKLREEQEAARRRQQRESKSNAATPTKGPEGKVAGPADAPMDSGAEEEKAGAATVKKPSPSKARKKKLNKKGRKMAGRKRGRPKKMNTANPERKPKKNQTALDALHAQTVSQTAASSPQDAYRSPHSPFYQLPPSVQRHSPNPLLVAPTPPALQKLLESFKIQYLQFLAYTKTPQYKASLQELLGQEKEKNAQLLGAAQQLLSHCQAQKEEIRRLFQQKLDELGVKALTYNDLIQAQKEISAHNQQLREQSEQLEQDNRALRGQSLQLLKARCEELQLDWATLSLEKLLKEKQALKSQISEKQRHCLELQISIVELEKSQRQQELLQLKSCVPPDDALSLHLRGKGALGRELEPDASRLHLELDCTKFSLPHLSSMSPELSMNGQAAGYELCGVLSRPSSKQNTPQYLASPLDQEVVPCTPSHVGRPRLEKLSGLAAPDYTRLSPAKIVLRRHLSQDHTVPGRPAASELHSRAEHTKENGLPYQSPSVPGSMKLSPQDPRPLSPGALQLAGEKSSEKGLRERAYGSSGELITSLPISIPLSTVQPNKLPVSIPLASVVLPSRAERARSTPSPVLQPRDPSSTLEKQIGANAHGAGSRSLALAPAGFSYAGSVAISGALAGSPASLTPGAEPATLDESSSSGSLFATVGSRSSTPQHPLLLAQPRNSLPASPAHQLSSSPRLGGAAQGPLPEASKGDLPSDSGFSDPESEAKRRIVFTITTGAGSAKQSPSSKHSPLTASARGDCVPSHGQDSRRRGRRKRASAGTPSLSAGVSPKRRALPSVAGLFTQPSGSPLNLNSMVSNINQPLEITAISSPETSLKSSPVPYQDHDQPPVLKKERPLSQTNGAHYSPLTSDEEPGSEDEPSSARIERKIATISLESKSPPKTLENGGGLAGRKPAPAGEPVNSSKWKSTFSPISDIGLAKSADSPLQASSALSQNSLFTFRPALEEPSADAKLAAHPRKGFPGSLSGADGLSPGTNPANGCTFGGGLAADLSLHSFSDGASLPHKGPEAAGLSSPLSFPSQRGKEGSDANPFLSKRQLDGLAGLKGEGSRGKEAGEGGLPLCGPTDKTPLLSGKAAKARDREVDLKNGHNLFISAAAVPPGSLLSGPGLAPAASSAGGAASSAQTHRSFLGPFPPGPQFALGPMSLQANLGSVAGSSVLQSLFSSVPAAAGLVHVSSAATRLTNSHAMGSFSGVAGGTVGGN
# MV4-11 [5] = assay: Induction of apoptosis in human MV411 cells assessed as viable cells at 0.625 uM after 48 hrs by Annexin-V-FITC/propidium iodide staining based flow cytometric method (reference value: 88.5 to 94.5%); assay type: functional; details: MV4-11, 48 h, read-out: Activity
# MV4-11 [6] = assay: Induction of apoptosis in human MV411 cells assessed as late apoptotic cells at 0.3125 uM after 48 hrs by Annexin-V-FITC/propidium iodide staining based flow cytometric method (reference value: 4.38 to 4.63%); assay type: functional
# [7] = target: T1, Histone-lysine N-methyltransferase, H3 lysine-79 specific; assay: Inhibition of recombinant human His6-SUMO tagged DOT1L (1 to 416 residues) expressed in Escherichia coli BL21(DE3) at 100 uM using oligonucleosome as substrate pretreated for 15 mins followed by substrate addition measured after 60 mins in presence of [3H]SAM by liquid scintillation counting method relative to control
# Target sequence in this assay (Q8TEK3 whole entry, looked up, the tested form may be a part): as the sequence (Q8TEK3 whole entry, the tested form may be a part) above
# [8] = target: T1, Histone-lysine N-methyltransferase, H3 lysine-79 specific; assay: Inhibition of recombinant human His6-SUMO tagged DOT1L (1 to 416 residues) expressed in Escherichia coli BL21(DE3) at 25 uM using oligonucleosome as substrate pretreated for 15 mins followed by substrate addition measured after 60 mins in presence of [3H]SAM by liquid scintillation counting method relative to control
# Target sequence in this assay (Q8TEK3 whole entry, looked up, the tested form may be a part): as the sequence (Q8TEK3 whole entry, the tested form may be a part) above
# MV4-11 [9] = assay: Cell cycle arrest in human MV411 cells assessed as accumulation at G1 phase at 0.625 uM after 24 hrs by propidium iodide staining based flow cytometric analysis (reference value: 40.62 to 65.56%); assay type: functional
# MV4-11 [10] = assay: Induction of apoptosis in human MV411 cells assessed as late apoptotic cells at 0.625 uM after 48 hrs by Annexin-V-FITC/propidium iodide staining based flow cytometric method (reference value: 4.38 to 4.63%); assay type: functional
# MV4-11 [11] = assay: Cell cycle arrest in human MV411 cells assessed as accumulation at G1 phase at 0.3125 uM after 24 hrs by propidium iodide staining based flow cytometric analysis (reference value: 40.62 to 65.56%); assay type: functional
# MV4-11 [12] = assay: Antiproliferative activity against human MV411 cells after 72 hrs by Alamar blue assay; assay type: functional, cell-based; details: MV4-11, 72 h
# MV4-11 [13] = assay: Cell cycle arrest in human MV411 cells assessed as accumulation at S phase at 0.3125 uM after 24 hrs by propidium iodide staining based flow cytometric analysis (reference value: 30.25 to 47.5%); assay type: functional
# [14] = target: T1, Histone-lysine N-methyltransferase, H3 lysine-79 specific; assay: Binding affinity to recombinant human His6-SUMO tagged DOT1L (1 to 416 residues) expressed in Escherichia coli BL21(DE3) by surface plasmon resonance method
# Target sequence in this assay (Q8TEK3 whole entry, the tested form may be a part): as above
# MV4-11 [15] = assay: Induction of apoptosis in human MV411 cells assessed as early apoptotic cells at 1.25 uM after 48 hrs by Annexin-V-FITC/propidium iodide staining based flow cytometric method (reference value: 1.15 to […]); assay type: functional
# [16] = target: T1, Histone-lysine N-methyltransferase, H3 lysine-79 specific; assay: Inhibition of recombinant human His6-SUMO tagged DOT1L (1 to 416 residues) expressed in Escherichia coli BL21(DE3) at 50 uM using oligonucleosome as substrate pretreated for 15 mins followed by substrate addition measured after 60 mins in presence of [3H]SAM by liquid scintillation counting method relative to control
# Target sequence in this assay (Q8TEK3 whole entry, looked up, the tested form may be a part): as the sequence (Q8TEK3 whole entry, the tested form may be a part) above
# MV4-11 [17] = assay: Cell cycle arrest in human MV411 cells assessed as accumulation at G2 phase at 0.625 uM after 24 hrs by propidium iodide staining based flow cytometric analysis (reference value: 4.19 to 11.88%); assay type: functional
# MV4-11 [18] = assay: Induction of apoptosis in human MV411 cells assessed as necrotic cells at 1.25 uM after 48 hrs by Annexin-V-FITC/propidium iodide staining based flow cytometric method (Rvb <= 0.08%); assay type: functional
# MV4-11 [19] = assay: Induction of apoptosis in human MV411 cells assessed as early apoptotic cells at 0.3125 uM after 48 hrs by Annexin-V-FITC/propidium iodide staining based flow cytometric method (reference value: 1.15 to […]); assay type: functional
# MV4-11 [20] = assay: Cell cycle arrest in human MV411 cells assessed as accumulation at G2 phase at 0.3125 uM after 24 hrs by propidium iodide staining based flow cytometric analysis (reference value: 4.19 to 11.88%); assay type: functional
# MV4-11 [21] = assay: Induction of apoptosis in human MV411 cells assessed as early apoptotic cells at 0.625 uM after 48 hrs by Annexin-V-FITC/propidium iodide staining based flow cytometric method (reference value: 1.15 to […]); assay type: functional
# MV4-11 [22] = assay: Induction of apoptosis in human MV411 cells assessed as late apoptotic cells at 1.25 uM after 48 hrs by Annexin-V-FITC/propidium iodide staining based flow cytometric method (reference value: 4.38 to 4.63%); assay type: functional
# MV4-11 [23] = assay: Induction of apoptosis in human MV411 cells assessed as necrotic cells at 0.625 uM after 48 hrs by Annexin-V-FITC/propidium iodide staining based flow cytometric method (Rvb <= 0.08%); assay type: functional
# MV4-11 [24] = assay: Cell cycle arrest in human MV411 cells assessed as accumulation at G1 phase after 24 hrs by propidium iodide staining based flow cytometric analysis; assay type: functional
# MV4-11 [25] = assay: Cell cycle arrest in human MV411 cells assessed as accumulation at G1 phase at 1.25 uM after 24 hrs by propidium iodide staining based flow cytometric analysis (reference value: 40.62 to 65.56%); assay type: functional
# MV4-11 [26] = assay: Induction of apoptosis in human MV411 cells assessed as necrotic cells at 0.3125 uM after 48 hrs by Annexin-V-FITC/propidium iodide staining based flow cytometric method (Rvb <= 0.08%); assay type: functional
# MV4-11 [27] = assay: Induction of apoptosis in human MV411 cells assessed as viable cells at 1.25 uM after 48 hrs by Annexin-V-FITC/propidium iodide staining based flow cytometric method (reference value: 88.5 to 94.5%); assay type: functional; details: MV4-11, 48 h, read-out: Activity
# MV4-11 [28] = assay: Induction of apoptosis in human MV411 cells assessed as viable cells at 0.3125 uM after 48 hrs by Annexin-V-FITC/propidium iodide staining based flow cytometric method (reference value: 88.5 to 94.5%); assay type: functional; details: MV4-11, 48 h, read-out: Activity
smiles,measurement,setting,value
COc1ccccc1-c1nnc2sc(/C=C/c3ccco3)nn12,Activity,MV4-11 [1],23.18%
same,Activity,MV4-11 [2],32.19%
same,Activity,MV4-11 [3],18.51%
same,IC50,[4],9.7 µM
same,viability at 0.625 µM,MV4-11 [5],30.4%
same,Activity,MV4-11 [6],12%
same,inhibition,[7],78%
same,inhibition,[8],62%
same,Activity,MV4-11 [9],57.22%
same,Activity,MV4-11 [10],35.3%
same,Activity,MV4-11 [11],46.31%
same,IC50,MV4-11 [12],1.07 µM
same,Activity,MV4-11 [13],37.51%
same,Kd,[14],7.08 µM
same,Activity,MV4-11 [15],44.1%
same,inhibition,[16],75%
same,Activity,MV4-11 [17],10.59%
same,Activity,MV4-11 [18],0.91%
same,Activity,MV4-11 [19],13.7%
same,Activity,MV4-11 [20],16.17%
same,Activity,MV4-11 [21],33.2%
same,Activity,MV4-11 [22],45.5%
same,Activity,MV4-11 [23],1.11%
same,Activity,MV4-11 [24],Dose-dependent effect
same,Activity,MV4-11 [25],58.01%
same,Activity,MV4-11 [26],0.72%
same,viability at 1.25 µM,MV4-11 [27],9.46%
same,viability at 0.3125 µM,MV4-11 [28],73.6%
